Data reported in PubChem BioAssay AID1259407 (Chemical Carcinogenesis Research Information System (CCRIS), 2018).
The source made the active and inactive calls. How the calls were made is not given here.

System: CCRIS mutagenicity, Ames/micronucleus/aberration tests
Experiment: CCRIS mutagenicity studies

**Q.** What does the source list for `Cn1c(N)nc2c3cccnc3ccc21`?
**A.** mutagenic call (End Point: IN VIVO MICRONUCLEUS, Test System: BONE MARROW POLYCHROMATIC ERYTHROCYTES, Species: MOUSE, Strain/Sex: BALB/C/MALE, Route: IP INJECTION): inactive; negative; mutagenic call (Test System: AMES SALMONELLA TYPHIMURIUM, Strain/Indicator: RAT, LIVER, MICROSOMES, Metabolic Activation: TA98, Method: PREINCUBATION): active; positive; mutagenic call (Test System: AMES SALMONELLA TYPHIMURIUM, Strain/Indicator: RAT, LIVER, S-9, Metabolic Activation: TA98, Method: PREINCUBATION): active; positive; mutagenic call (Test System: AMES SALMONELLA TYPHIMURIUM, Strain/Indicator: TA98 (1,8-DNP6), Metabolic Activation: RAT, LIVER, S-9, AROCLOR, Method: PREINCUBATION): inactive; negative; mutagenic call (Test System: AMES SALMONELLA TYPHIMURIUM, Strain/Indicator: TA98(1,8-DNP6), Metabolic Activation: RAT, LIVER, S-9, Method: STANDARD PLATE): inactive; negative; mutagenic call (Test System: AMES SALMONELLA TYPHIMURIUM, Strain/Indicator: TA98, Metabolic Activation: CYNOMOLGUS MONKEY, LIVER, MICROSOMES, Method: PREINCUBATION): active; positive; mutagenic call (Test System: AMES SALMONELLA TYPHIMURIUM, Strain/Indicator: TA98, Metabolic Activation: CYNOMOLOGUS MONKEY, LIVER, MICROSOMES, 2,3,7,8-TETRACHLORODIBENZO-P-DIOXIN, Method: PREINCUBATION): active; positive; mutagenic call (Test System: AMES SALMONELLA TYPHIMURIUM, Strain/Indicator: TA98, Metabolic Activation: CYNOMOLOGUS MONKEY, LIVER, MICROSOMES, 2-AMINO-3-METHYLIMIDAZO[4,5-F]QUINOLINE, Method: PREINCUBATION): active; positive; mutagenic call (Test System: AMES SALMONELLA TYPHIMURIUM, Strain/Indicator: TA98, Metabolic Activation: CYNOMOLOGUS MONKEY, LIVER, MICROSOMES, RIFAMPICIN, Method: PREINCUBATION): active; positive; mutagenic call (Test System: AMES SALMONELLA TYPHIMURIUM, Strain/Indicator: TA98, Metabolic Activation: HAMSTER, LIVER, S-9, AROCLOR 1254, Method: PREINCUBATION): active; positive; mutagenic call (Test System: AMES SALMONELLA TYPHIMURIUM, Strain/Indicator: TA98, Metabolic Activation: HAMSTER, LIVER, S-9, Method: PREINCUBATION): active; positive; mutagenic call (Test System: AMES SALMONELLA TYPHIMURIUM, Strain/Indicator: TA98, Metabolic Activation: HUMAN, BLOOD, CYTOSOL, Method: PREINCUBATION): active; positive; mutagenic call (Test System: AMES SALMONELLA TYPHIMURIUM, Strain/Indicator: TA98, Metabolic Activation: HUMAN, LIVER, MICROSOMES, Method: PREINCUBATION): active; positive; mutagenic call (Test System: AMES SALMONELLA TYPHIMURIUM, Strain/Indicator: TA98, Metabolic Activation: MONKEY, LIVER, MICROSOMES, Method: PREINCUBATION): active; positive; mutagenic call (Test System: AMES SALMONELLA TYPHIMURIUM, Strain/Indicator: TA98, Metabolic Activation: MONKEY, LIVER, S-9, Method: PREINCUBATION): active; positive; mutagenic call (Test System: AMES SALMONELLA TYPHIMURIUM, Strain/Indicator: TA98, Metabolic Activation: MOUSE, LIVER, HEPATOCYTES): active; positive; mutagenic call (Test System: AMES SALMONELLA TYPHIMURIUM, Strain/Indicator: TA98, Metabolic Activation: MOUSE, LIVER, HEPATOCYTES, 2,3,7,8-TETRACHLORODIBENZO-P-DIOXIN): active; positive; mutagenic call (Test System: AMES SALMONELLA TYPHIMURIUM, Strain/Indicator: TA98, Metabolic Activation: MOUSE, LIVER, MICROSOMES): active; positive; mutagenic call (Test System: AMES SALMONELLA TYPHIMURIUM, Strain/Indicator: TA98, Metabolic Activation: MOUSE, LIVER, MICROSOMES, 2,3,7,8-TETRACHLORODIBENZO-P-DIOXIN): active; positive; mutagenic call (Test System: AMES SALMONELLA TYPHIMURIUM, Strain/Indicator: TA98, Metabolic Activation: MOUSE, LIVER, MICROSOMES, TCDD, Method: STANDARD PLATE): active; positive; mutagenic call (Test System: AMES SALMONELLA TYPHIMURIUM, Strain/Indicator: TA98, Metabolic Activation: MOUSE, LIVER, MICROSOMES, Method: STANDARD PLATE): active; positive; mutagenic call (Test System: AMES SALMONELLA TYPHIMURIUM, Strain/Indicator: TA98, Metabolic Activation: MOUSE, LIVER, S-9, Method: PREINCUBATION): active; positive; mutagenic call (Test System: AMES SALMONELLA TYPHIMURIUM, Strain/Indicator: TA98, Metabolic Activation: NONE, Method: PREINCUBATION): inactive; negative; mutagenic call (Test System: AMES SALMONELLA TYPHIMURIUM, Strain/Indicator: TA98, Metabolic Activation: NONE, Method: STANDARD PLATE): inactive; negative; mutagenic call (Test System: AMES SALMONELLA TYPHIMURIUM, Strain/Indicator: TA98, Metabolic Activation: PATAS MONKEY, LIVER, MICROSOMES, Method: PREINCUBATION): active; positive; mutagenic call (Test System: AMES SALMONELLA TYPHIMURIUM, Strain/Indicator: TA98, Metabolic Activation: RAT LIVER, CYTOSOL, AROCLOR 1254, Method: STANDARD PLATE): inactive; negative; mutagenic call (Test System: AMES SALMONELLA TYPHIMURIUM, Strain/Indicator: TA98, Metabolic Activation: RAT LIVER, MICROSOMES, AROCLOR 1254, Method: STANDARD PLATE): active; positive; mutagenic call (Test System: AMES SALMONELLA TYPHIMURIUM, Strain/Indicator: TA98, Metabolic Activation: RAT, LIVER, HEPATOCYTES, AROCLOR 1254, Method: PREINCUBATION): active; positive; mutagenic call (Test System: AMES SALMONELLA TYPHIMURIUM, Strain/Indicator: TA98, Metabolic Activation: RAT, LIVER, HEPATOCYTES, Method: PREINCUBATION): active; positive; mutagenic call (Test System: AMES SALMONELLA TYPHIMURIUM, Strain/Indicator: TA98, Metabolic Activation: RAT, LIVER, MICROSOMES, Method: PREINCUBATION): active; positive; mutagenic call (Test System: AMES SALMONELLA TYPHIMURIUM, Strain/Indicator: TA98, Metabolic Activation: RAT, LIVER, S-9, 3-METHYLCHOLANTHRENE, Method: PREINCUBATION): active; positive; mutagenic call (Test System: AMES SALMONELLA TYPHIMURIUM, Strain/Indicator: TA98, Metabolic Activation: RAT, LIVER, S-9, AROCLOR, Method: PREINCUBATION): active; positive; mutagenic call (Test System: AMES SALMONELLA TYPHIMURIUM, Strain/Indicator: TA98, Metabolic Activation: RAT, LIVER, S-9, N-BENZYLIMIDAZOLE, Method: PREINCUBATION): active; positive; mutagenic call (Test System: AMES SALMONELLA TYPHIMURIUM, Strain/Indicator: TA98, Metabolic Activation: RAT, LIVER, S-9, PHENOBARBITONE, Method: PREINCUBATION): active; positive; mutagenic call (Test System: AMES SALMONELLA TYPHIMURIUM, Strain/Indicator: TA98, Metabolic Activation: RAT, LIVER, S-9, Method: STANDARD PLATE): active; positive; mutagenic call (Test System: AMES SALMONELLA TYPHIMURIUM, Strain/Indicator: TA98, Method: STANDARD PLATE): active; positive; mutagenic call (Test System: AMES SALMONELLA TYPHIMURIUM, Strain/Indicator: TA100, Metabolic Activation: NONE, Method: PREINCUBATION): inactive; negative; mutagenic call (Test System: AMES SALMONELLA TYPHIMURIUM, Strain/Indicator: TA100, Metabolic Activation: RAT, LIVER, S-9, AROCLOR 1254, Method: PREINCUBATION): active; positive; mutagenic call (Test System: AMES SALMONELLA TYPHIMURIUM, Strain/Indicator: YG1019, Metabolic Activation: RAT LIVER S-9, AROCLOR, Method: PREINCUBATION): active; positive; mutagenic call (Test System: AMES SALMONELLA TYPHIMURIUM, Strain/Indicator: YG1024, Metabolic Activation: RAT, LIVER, S-9, AROCLOR, Method: PREINCUBATION): active; positive; mutagenic call (Test System: CHINESE HAMSTER V-79, Strain/Indicator: V-79/6-THIOGUANINE, Metabolic Activation: RAT, LIVER, HEPATOCYTES, AROCLOR 1254): active; positive; mutagenic call (Test System: CHINESE HAMSTER V-79, Strain/Indicator: V-79/6-THIOGUANINE, Metabolic Activation: RAT, LIVER, S-9, AROCLOR 1254): inactive; negative; mutagenic call (Test System: E. COLI, Strain/Indicator: CC109, Metabolic Activation: RAT, LIVER, S-9, AROCLOR 1254, Method: STANDARD PLATE): active; positive; mutagenic call (Test System: E. COLI, Strain/Indicator: CC110, Metabolic Activation: RAT, LIVER, S-9, AROCLOR 1254, Method: STANDARD PLATE): active; positive; mutagenic call (Test System: E. COLI, Strain/Indicator: DJ3109, Metabolic Activation: RAT, LIVER, S-9, AROCLOR 1254, Method: STANDARD PLATE): active; positive; mutagenic call (Test System: E. COLI, Strain/Indicator: DJ3110, Metabolic Activation: RAT, LIVER, S-9, AROCLOR 1254, Method: STANDARD PLATE): active; positive; mutagenic call (Test System: E. COLI, Strain/Indicator: DJ3209, Metabolic Activation: RAT, LIVER, S-9, AROCLOR 1254, Method: STANDARD PLATE): active; positive; mutagenic call (Test System: E. COLI, Strain/Indicator: DJ3210, Metabolic Activation: RAT, LIVER, S-9, AROCLOR 1254, Method: STANDARD PLATE): active; positive; mutagenic call (Test System: UDS HAMSTER HEPATOCYTES, Strain/Indicator: THY INCORP, Metabolic Activation: NONE, Method: LIQUID SCINTILLATION COUNTING): active; positive; mutagenic call (Test System: UDS HUMAN HEPATOCYTES, Strain/Indicator: THY INCORP, Metabolic Activation: NONE, Method: AUTORADIOGRAPHY): active; positive; mutagenic call (Test System: UDS MOUSE HEPATOCYTES, Strain/Indicator: THY INCORP, Metabolic Activation: NONE, Method: AUTORADIOGRAPHY): active; positive; mutagenic call (Test System: UDS RAT HEPATOCYTES, Strain/Indicator: THY INCORP, Metabolic Activation: NONE, Method: AUTORADIOGRAPHY): inactive; negative; mutagenic call (Test System: UDS RAT HEPATOCYTES, Strain/Indicator: THY INCORP, Metabolic Activation: NONE, Method: LIQUID SCINTILLATION COUNTING): inactive; negative
